Target: T1, 5-HT transporter (Rattus norvegicus, UniProt P31652)
T1 construct: these vesicular particles were isolated from the pons and medulla oblongata region of the male rat brain; from tissue; host or cells: rat brain synaptosomes (P2 fraction) from pons and medulla oblongata of male rats
Test: Inhibition of serotonin re-uptake (5-HT uptake inhibition) in rat brain synaptosomes
Assay type: biochemical
Settings: rat brain synaptosomes (P2 fraction, pons and medulla oblongata); means from 2 parallel experiments; concentration not given
Protocol: The investigations of the inhibition of serotonin re-uptake (5-HT uptake inhibition) were carried out by the methods such as are described in M. Ch. Frink, H. -H. -Hennies, W. Englberger, M. Haurand and B. Wilffert, Arzneim.-Forsch./Drug. Res. 46 (III), 11, 1996, pages 1029–1036. They are introduced herewith as reference and thus form part of the disclosure.
To carry out these investigations, synaptosomes were freshly isolated from rat brain areas. In each case the so-called “P2” fraction was used, which was prepared according to the instructions in E. G. Gray and V. P. Whittaker, J. Anat. 76, pages 79–88, 1962. This literature is introduced herewith as reference and thus forms part of the disclosure. For determination of the 5-HT uptake, these vesicular particles were isolated from the pons and medulla oblongata region of the male rat brain.
The following characteristic data were determined for the 5-HT transporter: • 5-HT uptake: Km=0.084±0.011 μM • Vmax: 38.13±4.52 pmol/min/mg protein.
The results of the investigations are in each case stated as means from 2 parallel experiments.

T1 sequence (P31652 whole entry): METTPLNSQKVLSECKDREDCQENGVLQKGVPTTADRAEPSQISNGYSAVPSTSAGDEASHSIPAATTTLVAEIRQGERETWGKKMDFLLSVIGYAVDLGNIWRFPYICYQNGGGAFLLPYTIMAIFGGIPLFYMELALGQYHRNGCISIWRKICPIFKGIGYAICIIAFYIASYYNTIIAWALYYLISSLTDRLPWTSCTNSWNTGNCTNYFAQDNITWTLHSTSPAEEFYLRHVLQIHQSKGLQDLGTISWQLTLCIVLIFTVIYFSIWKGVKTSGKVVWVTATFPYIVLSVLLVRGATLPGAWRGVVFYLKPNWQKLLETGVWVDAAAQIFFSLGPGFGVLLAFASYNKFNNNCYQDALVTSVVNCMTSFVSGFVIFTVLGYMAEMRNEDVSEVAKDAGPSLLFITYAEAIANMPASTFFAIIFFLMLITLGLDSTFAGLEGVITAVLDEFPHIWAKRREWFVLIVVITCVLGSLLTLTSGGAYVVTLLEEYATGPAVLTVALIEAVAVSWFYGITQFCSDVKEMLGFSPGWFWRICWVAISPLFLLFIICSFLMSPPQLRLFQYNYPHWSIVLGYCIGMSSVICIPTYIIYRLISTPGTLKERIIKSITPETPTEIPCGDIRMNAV

Structure (SMILES) | Inhibition of 5HT uptake in %
CCn1c(-c2ccccc2)c(C(c2ccc(C(C)(C)C)cc2)N(C)C)c2ccccc21 (centres unmarked) [Example 72, [(4-tert-Butyl-phenyl)-(1-ethyl-2-phenyl-1H-indol-3-yl)-methyl]-dimethyl-amine] | 60%
COc1cccc(C(c2c[nH]c3cccc([N+](=O)[O-])c23)N(C)C)c1OC (centres unmarked) [Example 75, [(2,3-Dimethoxy-phenyl)-(4-nitro-1H-indol-3-yl)-methyl]-dimethylamine] | 39%
COc1cccc(C(c2c[nH]c3c2CC=C(C(=O)O)C3)N(C)C)c1OC (centres unmarked) [Example 76, 3-[(2,3-Dimethoxy-phenyl)-dimethylamino-methyl]-4,7-dihydro-1H-indole-6-carboxylic Acid] | 42%
COc1cccc(C(c2c(C(=O)O)[nH]c3ccc(O)cc23)N(C)C)c1OC (centres unmarked) [Example 77, 3-[(2,3-Dimethoxy-phenyl)-dimethylamino-methyl]-5-hydroxy-1H-indole-2-carboxylic Acid] | 38%
CN(C)C(c1ccccc1F)c1c[nH]c2ccc(Cl)cc12 (centres unmarked) [Example 85, [(5-Chloro-1H-indol-3-yl)-(2-fluoro-phenyl)-methyl]-dimethyl-amine] | 44%
Cc1cccc2[nH]cc(C(c3ccc(F)cc3)N(C)C)c12 (centres unmarked) [Example 86, [(4-Fluoro-phenyl)-(4-methyl-1H-indol-3-yl)-methyl]-dimethyl-amine] | 41%
CCc1cccc2c(C(c3ccccc3OC)N(C)C)c[nH]c12 (centres unmarked) [Example 87, [(7-Ethyl-1H-indol-3-yl)-(2-methoxy-phenyl)-methyl]-dimethyl-amine] | 50%
CCc1cccc2c(C(c3ccccc3C)N(C)C)c[nH]c12 (centres unmarked) [Example 89, [(7-Ethyl-1H-indol-3-yl)-o-tolyl-methyl]-dimethyl-amine] | 45%
Cc1ccccc1C(c1cn(C)c2ccccc12)N(C)C (centres unmarked) [Example 90, Dimethyl-[(1-methyl-1H-indol-3-yl)-o-tolyl-methyl]-amine] | 44%
Cc1ccccc1C(c1c[nH]c2ccc(Cl)cc12)N(C)C (centres unmarked) [Example 91, [(5-Chloro-1H-indol-3-yl)-o-tolyl-methyl]-dimethyl-amine] | 49%
Cc1cccc(C(c2c[nH]c3ccc(Cl)cc23)N(C)C)c1 (centres unmarked) [Example 92, [(5-Chloro-1H-indol-3-yl)-m-tolyl-methyl]-dimethyl-amine] | 46%
Cc1ccc(C(c2c[nH]c3ccc(Cl)cc23)N(C)C)cc1 (centres unmarked) [Example 94, [(5-Chloro-1H-indol-3-yl)-p-tolyl-methyl]-dimethyl-amine] | 64%
CCn1c(-c2ccccc2)c(C(c2cccc(Oc3ccccc3)c2)N(C)C)c2ccccc21 (centres unmarked) [Example 96, [(1-Ethyl-2-phenyl-1H-indol-3-yl)-(3-phenoxy-phenyl)-methyl]-dimethylamine] | 55%
CCc1cccc2c(C(c3cccc(Oc4ccccc4)c3)N(C)C)c[nH]c12 (centres unmarked) [Example 97, [(7-Ethyl-1H-indol-3-yl)-(3-phenoxy-phenyl)-methyl]-dimethyl-amine] | 79%
CN(C)C(c1cccc(Oc2ccccc2)c1)c1cn(C)c2ccccc12 (centres unmarked) [Example 98, Dimethyl-[(1-methyl-1H-indol-3-yl)-(3-phenoxy-phenyl)-methyl]-amine] | 66%
CN(C)C(c1cccc(Oc2ccccc2)c1)c1c(-c2ccc(F)cc2)[nH]c2ccccc12 (centres unmarked) [Example 99, [[2-(4-Fluoro-phenyl)-1H-indol-3-yl]-(3-phenoxy-phenyl)-methyl]-dimethyl-amine] | 42%
NC(c1cccc(Oc2ccccc2)c1)c1c(-c2ccc(F)c(Cl)c2)[nH]c2ccccc12 (centres unmarked) [Example 100, [[2-(3-Chloro-4-fluoro-phenyl)-1H-indol-3-yl]-(3-phenoxy-phenyl)-methyl]-amine] | 48%
Cc1cccc2[nH]cc(C(c3cccc(Oc4ccccc4)c3)N(C)C)c12 (centres unmarked) [Example 101, Dimethyl-[(4-methyl-1H-indol-3-yl)-(3-phenoxy-phenyl)-methyl]-amine] | 41%
CN(C)C(c1ccccc1C(F)(F)F)c1c[nH]c2ccc(Cl)cc12 (centres unmarked) [Example 102, [(5-Chloro-1H-indol-3-yl)-(2-trifluoromethyl-phenyl)-methyl]-dimethyl-amine] | 42%

Further lines, results first:

Inhibition of 5HT uptake in % | Structure (SMILES)
48% | COc1ccccc1C(c1c(C)[nH]c2ccccc12)N(C)C (centres unmarked) [Example 44, [(2-Methoxyphenyl)-(2-methyl-1H-indol-3-yl)-methyl]-dimethylamine]
41% | Cc1[nH]c2ccccc2c1C(c1ccc(F)cc1Cl)N(C)C (centres unmarked) [Example 73, [(2-Chloro-4-fluoro-phenyl)-(2-methyl-1H-indol-3-yl)-methyl]-dimethyl-amine]
72% | Cc1[nH]c2ccccc2c1C(c1c(F)cccc1Cl)N(C)C (centres unmarked) [Example 74, [(2-Chloro-6-fluoro-phenyl)-(2-methyl-1H-indol-3-yl)-methyl]-dimethyl-amine]
73% | COc1ccc(C(c2c(C)[nH]c3ccccc23)N(C)C)cc1OC (centres unmarked) [Example 78, [(3,4-Dimethoxy-phenyl)-(2-methyl-1H-indol-3-yl)-methyl]-dimethyl-amine]
50% | COc1ccc(C(c2c(-c3ccc(Cl)cc3)[nH]c3ccccc23)N(C)C)cc1OC (centres unmarked) [Example 79, [[2-(4-Chloro-phenyl)-1H-indol-3-yl]-(3,4-dimethoxy-phenyl)-methyl]-dimethyl-amine]
42% | CCn1c(-c2ccccc2)c(C(c2ccc(OC)c(OC)c2)N(C)C)c2ccccc21 (centres unmarked) [Example 80, [(3,4-Dimethoxy-phenyl)-(1-ethyl-2-phenyl-1H-indol-3-yl)-methyl]-dimethyl-amine]
68% | CCc1cccc2c(C(c3ccc(OC)c(OC)c3)N(C)C)c[nH]c12 (centres unmarked) [Example 81, [(3,4-Dimethoxy-phenyl)-(7-ethyl-1H-indol-3-yl)-methyl]-dimethyl-amine]
42% | COc1ccc(C(c2cn(C)c3ccccc23)N(C)C)cc1OC (centres unmarked) [Example 82, [(3,4-Dimethoxy-phenyl)-(1-methyl-1H-indol-3-yl)-methyl]-dimethyl-amine]
39% | COc1ccc(C(c2c(-c3ccc(F)cc3)[nH]c3ccccc23)N(C)C)cc1OC (centres unmarked) [Example 83, [(3,4-Dimethoxy-phenyl)-[2-(4-fluoro-phenyl)-1H-indol-3-yl]-methyl]-dimethylamine]
44% | COc1ccc(C(c2c(-c3ccc(F)c(Cl)c3)[nH]c3ccccc23)N(C)C)cc1OC (centres unmarked) [Example 84, [[2-(3-Chloro-4-fluoro-phenyl)-1H-indol-3-yl]-(3,4-dimethoxy-phenyl)-methyl]-dimethyl-amine]
62% | Cc1ccccc1C(c1c(C)[nH]c2ccccc12)N(C)C (centres unmarked) [Example 88, Dimethyl-[(2-methyl-1H-indol-3-yl)-o-tolyl-methyl]-amine]
78% | Cc1ccc(C(c2c(C)[nH]c3ccccc23)N(C)C)cc1 (centres unmarked) [Example 93, Dimethyl-[(2-methyl-1H-indol-3-yl)-p-tolyl-methyl]-amine]
70% | Cc1[nH]c2ccccc2c1C(c1cccc(Oc2ccccc2)c1)N(C)C (centres unmarked) [Example 95, Dimethyl-[(2-methyl-1H-indol-3-yl)-(3-phenoxy-phenyl)-methyl]-amine]

From patent US7091220B2, “Substituted indole Mannich bases” (Gruenenthal GmbH, priority 1999, dated 2006)
